melting point: 128 to 129 °C
Compound: O=C(CC(=O)c1cccn1Cc1ccc(F)cc1)c1ccncn1

From patent publication US20030229079A1 (published 2003)
